Measurements published in patent US6818651B2, “(Dihydro) isoquinoline derivatives as phosphodiesterase inhibitors” (Altana Pharma AG, priority 2000, dated 2004).

Biological target: T1, recombinant PDE7A1 (Homo sapiens, UniProt Q13946)
T1 construct: made in house; host or cells: SF21 insect cells (baculovirus; virus made in SF9)
Experiment: Inhibition of PDE7 activity, modified SPA (scintillation proximity assay) test
Assay type: biochemical
Conditions: recombinant PDE7A1 (1000×g supernatant of SF21 cells), 0.5 μM cAMP, [3H]cAMP SPA, 37° C.; read-out: −log IC50 (inhibition of PDE7 activity) (converted)
Source text: Cloning and expression of PDE7: The cDNAs for PDE7A1 and 7A2 (GenBank Acc-: L12052 and u67932, respectively) were isolated, using RT-PCR, from total cellular RNA derived from the T cell line CCRF-CEM and cloned into the cloning vector pCR2.1 (Invitrogen, Groningen, NL) under standard conditions (the manufacturer's instructions). For expression in insect cells, the cDNAs were subcloned into the baculo expression vector pCRBac (Invitrogen, Groningen, NL).
The recombinant baculoviruses were prepared, by means of homologous recombination in SF9 insect cells, by cotransfecting the plasmids containing baculovirus DNA (wild type, wt) Bac-N-Blue (Invitrogen, Groningen, NL) for PDE7A1 and containing Baculo-Gold DNA (Pharmingen, Hamburg) using a standard protocol (Pharmingen, Hamburg). Wt virus-free recombinant virus supernatants were selected using plaque assay methods. After that, high-titre virus supernatants were prepared by amplifying 3 times. For determining the enzyme activities, the PDEs were expressed in SF21 cells by infecting 2×10^6 cells/ml with an MOI (multiplicity of infection) ≈5 in serum-free SF900 medium (Life Technologies, Paisley, UK) in spinner flasks. The cells were cultured at 28° C., and at a rotationall speed of 75 rpm, for 48 hours, after which they were pelleted for 5-10 min at 1000 g and 4° C. and then resuspended in 1×PBS at a concentration of 1-3×10^6 cells/ml. The protein content was determined by the Bradford method (BioRad, Munich) using BSA as the standard.
The SF21 insect cells are resuspended, at a concentration of approx. 10^7 cells/ml, in ice-cold (4° C.) homogenization buffer (20 mM Tris, pH 8.2, containing the following additions: 140 mM NaCl, 3.8 mM KCl, 1 mM EGTA, 1 mM MgCl2, 1 mM β-mercaptoethanol, 2 mM benzamidine, 0.4 mM Pefablock, 10 μM leupeptin, 10 μM pepstatin A, 5 μM trypsin inhibitor) and disrupted by ultrasonication. The homogenate is then centrifuged for 10 min at 1000×g and the supernatant is stored at −80° C. until subsequent use (see below).
The PDE7 activity was inhibited by said compounds in a modified SPA (scintillation proximity assay) test, supplied by Amersham Pharmacia Biotech (see procedural instructions “Phosphodiesterase [3H]cAMP SPA enzyme assay, code TRKQ 7090”), carried out in 96-well microtitre plates (MTPs). The test volume is 100 μl and contains 20 mM Tris buffer (pH 7.4), 0.1 mg of BSA (bovine serum albumin)/ml, 5 mM Mg^2+, 0.5 μM cAMP (including about 50,000 cpm of [3H]cAMP), 2 μl of the respective substance dilution in DMSO and sufficient recombinant PDE7A1 (1000×g supernatant, see above) to ensure that 15-20% of cAMP is converted under said experimental conditions. After a preincubation of 5 min at 37° C., the reaction is started by adding a substrate (cAMP) and the assays are incubated for a further 15 min; after that, they are stopped by adding SPA beads (50 μl). In accordance with the manufacturer's instructions, the SPA beads had previously been resuspended in water and diluted 1:3 (v/v) and added to IBMX (3 mM). After the beads have been sedimented (>30 min), the MTPs are analyzed in commercially available measuring appliances and the corresponding IC50 values of the compounds for the inhibition of PDE7 activity are determined from concentration-effect curves by means of non-linear regression.
The inhibitory values [inhibitory concentration as −logIC50 (mol/l)] which were determined for the compounds according to the invention are shown in the following table 1, in which the numbers of the compounds correspond to the numbers of the examples.

T1 sequence (Q13946 whole entry): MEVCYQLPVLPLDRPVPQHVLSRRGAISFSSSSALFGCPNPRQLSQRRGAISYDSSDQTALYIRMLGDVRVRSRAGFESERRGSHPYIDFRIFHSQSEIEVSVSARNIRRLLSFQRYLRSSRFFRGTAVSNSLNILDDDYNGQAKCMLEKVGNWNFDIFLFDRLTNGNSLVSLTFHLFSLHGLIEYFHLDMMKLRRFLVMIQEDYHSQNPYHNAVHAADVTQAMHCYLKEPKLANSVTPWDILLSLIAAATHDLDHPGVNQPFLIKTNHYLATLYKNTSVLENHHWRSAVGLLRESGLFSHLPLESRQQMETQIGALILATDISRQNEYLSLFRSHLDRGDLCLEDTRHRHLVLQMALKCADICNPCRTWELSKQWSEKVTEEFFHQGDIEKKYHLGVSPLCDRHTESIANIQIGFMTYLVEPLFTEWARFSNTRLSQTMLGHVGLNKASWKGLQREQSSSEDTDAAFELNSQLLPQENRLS

Structure (SMILES)	IC50 [nM]
COc1cc(C2=NCCc3ccc(Cl)cc32)ccc1NS(=O)(=O)c1ccc(OC(F)(F)F)cc1 [Compound 1a, 1-[4-(4-Trifluoromethoxybenzenesulfonamido)-3-methoxyphenyl]-7-chloro-3,4-dihydroisoquinoline]	32.4
COc1cc(C2=NCCc3ccc(Cl)cc32)ccc1NS(=O)(=O)c1ccc(C)cc1 [Compound 1b, 1-[4-(4-Methylbenzenesulfonamido)-3-methoxyphenyl]-7-chloro-3,4-dihydroisoquinoline]	123
COc1cc(C2=NCCc3ccccc32)ccc1NS(=O)(=O)c1ccc(-c2ccon2)s1 [Compound 2a, 1-[4-(5-(Isoxazol-3-yl)-thiophene-2-sulfonamido)-3-methoxyphenyl]-3,4-dihydroisoquinoline]	295
O=S(=O)(Nc1ccc(C2=NCCc3ccc(F)cc32)cc1)c1cccc(C(F)(F)F)c1 [Compound 4c, 1-[4-(3-Trifluoromethylbenzenesulfonamido)phenyl]-7-fluoro-3,4-dihydroisoquinoline]	257
O=S(=O)(Nc1ccc(C2=NCCc3ccc(F)cc32)cc1)c1ccc2ccccc2c1 [Compound 4e, 1-[4-(Naphthalene-2-sulfonamido)phenyl]-7-fluoro-3,4-dihydroisoquinoline]	389
O=S(=O)(C=Cc1ccccc1)Nc1ccc(C2=NCCc3ccc(Cl)cc32)cc1 [Compound 6h, 1-[4-(2-Phenylethenesulfonamido)phenyl]-7-chloro-3,4-dihydroisoquinoline]	245
O=S(=O)(Nc1ccc(C2=NCCc3ccc(Cl)cc32)cc1)c1cc(Br)c(Cl)s1 [Compound 6m, 1-[4-(4-Bromo-5chlorothiophene-2-sulfonamido)phenyl]-7-chloro-3,4-dihydroisoquinoline]	380
